Results: patent US20170066759A1, “AROMATIC 5-MEMBERED HETEROCYCLIC DERIVATIVE HAVING TRPV4-INHIBITING ACTIVITY” (Shionogi & Co., Ltd., priority 2012, published 2017)

Molecular target: T1, human TRPV4 (hTRPV4/CHO cells) (Homo sapiens, UniProt Q9HBA0)
T1 construct: expressed in transfected cells; host or cells: CHO-K1
Experiment: Test Example 1: TRPV4 inhibitory activity (IC50 value), 4α-PDD stimulation, Fluo4 calcium fluorescence (FLIPR TETRA)
Assay type: cell-based
Settings: Test Example 1, 4α-PDD stimulation, read-out: Test 1 IC50

T1 sequence (Q9HBA0 whole entry): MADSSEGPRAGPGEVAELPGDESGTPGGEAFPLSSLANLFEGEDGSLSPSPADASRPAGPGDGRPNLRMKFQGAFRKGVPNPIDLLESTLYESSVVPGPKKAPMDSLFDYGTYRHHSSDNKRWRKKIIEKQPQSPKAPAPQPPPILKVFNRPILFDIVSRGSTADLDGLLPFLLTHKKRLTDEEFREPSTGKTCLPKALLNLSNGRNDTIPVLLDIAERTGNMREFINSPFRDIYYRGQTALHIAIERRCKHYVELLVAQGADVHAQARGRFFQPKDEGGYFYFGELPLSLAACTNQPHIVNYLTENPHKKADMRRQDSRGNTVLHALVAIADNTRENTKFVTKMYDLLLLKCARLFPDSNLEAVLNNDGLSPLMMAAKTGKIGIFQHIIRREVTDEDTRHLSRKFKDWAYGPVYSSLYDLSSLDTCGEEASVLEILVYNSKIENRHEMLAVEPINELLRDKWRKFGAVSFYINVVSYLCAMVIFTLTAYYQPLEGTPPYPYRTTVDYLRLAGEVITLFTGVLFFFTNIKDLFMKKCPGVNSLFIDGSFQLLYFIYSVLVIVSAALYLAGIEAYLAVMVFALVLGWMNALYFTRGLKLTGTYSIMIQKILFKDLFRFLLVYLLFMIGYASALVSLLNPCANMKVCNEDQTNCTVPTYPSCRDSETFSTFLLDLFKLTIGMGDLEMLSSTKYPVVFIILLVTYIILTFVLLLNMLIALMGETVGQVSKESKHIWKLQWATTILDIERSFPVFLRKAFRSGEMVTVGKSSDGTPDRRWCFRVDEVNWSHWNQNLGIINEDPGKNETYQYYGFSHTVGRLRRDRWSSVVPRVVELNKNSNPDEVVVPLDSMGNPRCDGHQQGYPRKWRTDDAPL

IC50 [µM] | Compound
1 to 8 | CC(OC(N)=O)c1nc(CO)sc1-c1csc(NC(=O)Cc2ccc(S(=O)(=O)C(F)(F)F)cc2)n1 (single isomer, unassigned) [Compound I-479]
< 0.1 | Cc1nc(C)c(-c2csc(NCC3Cc4cc(Cl)ccc4O3)n2)s1 (racemic) [II-48]
< 0.1 | Cc1nc(C)c(-c2csc(NC(=O)Cn3cc(C(F)(F)F)cn3)n2)s1 [Compound I-124]
0.1 to 1 | Cc1nc(C)c(-c2csc(NC(=O)CN3CCOC(c4ccccc4)C3)n2)s1 (stereo not drawn) [Compound I-170]
1 to 8 | CC(=O)NC(C)c1nc(CO)sc1-c1csc(NC(=O)Cc2ccc(S(=O)(=O)C(F)(F)F)cc2)n1 (racemic) [Compound I-472]
0.1 to 1 | O=C(Cc1ccc(S(=O)(=O)C(F)(F)F)cc1)Nc1nc(-c2sc(CO)nc2CCC(=O)N2CCOCC2)cs1 [Compound I-363]
< 0.1 | Cc1nc(CO)sc1-c1csc(NC(=O)[C@@H]2C[C@@H](c3ccccc3)CN2S(=O)(=O)C(C)C)n1 [Compound I-316]
1 to 8 | Cc1nc(CO)sc1-c1csc(NC(=O)OC(C)(C)C)n1 [Compound I-30]
0.1 to 1 | Cc1nc(CO)sc1-c1csc(NC(=O)[C@H]2C[C@H](C(F)F)C2)n1 [Compound I-552]
< 0.1 | O=C(Nc1nc(-c2sc(CO)nc2CO)cs1)C1CN(c2ccccc2C(F)(F)F)C1 [Compound I-327]
< 0.1 | Cc1nc(C)c(-c2csc(NC(=O)Cn3cc(-c4ccccc4N(C)C)cn3)n2)s1 [Compound I-169]
0.1 to 1 | Cc1nc(CO)sc1-c1csc(NC(=O)NCc2ccc(Cl)cc2)n1 [Compound I-442]
1 to 8 | Cc1nc(CO)sc1-c1csc(NC(=O)C2CC(OCc3cccnc3)C2)n1 (stereo not drawn) [Compound I-247]
< 0.1 | Cc1nc(C)c(-c2csc(NC(=O)Cn3cc(-c4ccc(Cl)cc4)nn3)n2)s1 [Compound I-423]
1 to 8 | CC(=O)N1C[C@H](Oc2ccccc2)C[C@H]1C(=O)Nc1nc(-c2sc(C)nc2C)cs1 [Compound I-251]
< 0.1 | Cc1nc(CO)sc1-c1csc(NC(=O)C2CN(c3cccnc3Br)C2)n1 [Compound I-311]
0.1 to 1 | Cc1nc(C)c(-c2csc(NC(=O)CC3CN(c4ccc(C(F)(F)F)cn4)C3)n2)s1 [Compound I-493]
1 to 8 | O=C(Nc1nc(-c2sc(CO)nc2CO)cs1)[C@H]1C[C@@H](NCc2ccc(C(F)(F)F)cc2)C1 [Compound I-317]
0.1 to 1 | Cc1[nH]c(=O)sc1-c1csc(NC(=O)Cc2c(F)cccc2F)n1 [Compound I-93]
1 to 8 | Cc1nc(C)c(-c2nc(NC(=O)Cc3c(F)cccc3F)sc2C(=O)NCc2ccccc2)s1 [Compound I-83]
1 to 8 | Cc1nc(C)c(-c2csc(NC(=O)C(O)c3c(F)cccc3F)n2)s1 (stereo not drawn) [Compound I-103]
0.1 to 1 | Cc1nc(CO)sc1-c1csc(NC(=O)C2CN(S(=O)(=O)c3ccccc3C(F)(F)F)C2)n1 [Compound I-305]
< 0.1 | Cc1nc(CC#N)sc1-c1csc(NC(=O)Cc2ccc(S(=O)(=O)C(F)(F)F)cc2)n1 [Compound I-392]
< 0.1 | Cc1nc(C)c(-c2csc(NC(=O)CC3CN(c4ccc(C(F)(F)F)cc4)C3)n2)s1 [Compound I-492]
1 to 8 | Cc1nc(C)c(-c2csc(NC(=O)N3CCC(C(F)(F)F)CC3)n2)s1 [Compound I-89]

IC50 [µM] | Compound
< 0.1 | N#CCc1nc(CO)sc1-c1csc(NC(=O)C2CN(c3ncc(C(F)(F)F)cn3)C2)n1 [Compound I-395]
0.1 to 1 | O=C(Nc1nc(-c2sc(CO)nc2CO)cs1)[C@@H]1C[C@@H](c2ccccc2)CN1S(=O)(=O)C(F)(F)F [Compound I-338]
0.1 to 1 | Cc1nc(C)c(-c2csc(NC(=O)CN3CCCC3c3ccccc3)n2)s1 (stereo not drawn) [Compound I-154]
< 0.1 | CC(C)c1ccc(N2CC(C(=O)Nc3nc(-c4sc(CO)nc4CO)cs3)C2)cc1 [Compound I-341]
< 0.1 | Cc1nc(C)c(-c2csc(NC(=O)Cc3ccc(S(=O)(=O)N(C)c4cccc(Cl)c4)cc3)n2)s1 [Compound I-161]
0.1 to 1 | Cc1nc(C(C)O)c(-c2csc(NC(=O)Cc3c(F)cccc3F)n2)s1 (stereo not drawn) [Compound I-130]
< 0.1 | Cc1nc(C)c(-c2csc(NC(=O)Cc3cc(C(=O)N[C@H](c4ccccc4)C(F)(F)F)cc([N+](=O)[O-])c3)n2)s1 [Compound I-517]
< 0.1 | Cc1nc(C)c(-c2csc(NC(=O)C3(C)CCN(c4ccc(C(F)(F)F)cc4)CC3)n2)s1 (racemic) [Compound I-512]
< 0.1 | CC(O)c1nc(CO)sc1-c1csc(NC(=O)Cc2ccc(S(=O)(=O)C(F)(F)F)cc2)n1 (racemic) [Compound I-235]
0.1 to 1 | Cc1nc(C)c(-c2csc(NC(=O)Cc3ccc(NC(=O)c4ccccc4)cc3)n2)s1 [Compound I-413]
0.1 to 1 | Cc1nc(C)c(-c2csc(NC(=O)CCC(=O)N[C@H](c3ccccc3)C(F)(F)F)n2)s1 [Compound I-494]
1 to 8 | Cc1nc(C)c(-c2csc(NC(=O)Cc3ccc(S(=O)(=O)C(F)(F)F)cc3)n2)[nH]1 [Compound I-477]
0.1 to 1 | Cc1nc(C)c(-c2nc(NC(=O)Cc3c(F)cccc3F)sc2-c2cscn2)s1 [Compound I-61]
0.1 to 1 | Cc1nc(C)c(-c2csc(NC(=O)Cn3cc(-c4ccc(S(C)(=O)=O)cc4)nn3)n2)s1 [Compound I-422]
< 0.1 | COc1nc(C)c(-c2csc(NC(=O)Cc3ccc(S(=O)(=O)C(F)(F)F)cc3)n2)s1 [Compound I-444]
< 0.1 | CC(C)OC(=O)NCc1nc(CO)sc1-c1csc(NC(=O)C2CN(c3ccc(C(F)(F)F)cc3)C2)n1 [Compound I-350]
1 to 8 | Cc1nc(C)c(-c2csc(NC(=O)Cc3cccc(C#N)c3)n2)o1 [Compound I-138]
< 0.1 | Cc1nc(C)c(-c2csc(NC(=O)C3CN(c4ccc(C(F)(F)F)nc4)C3)n2)s1 [Compound I-286]
0.1 to 1 | Cc1nc(C)c(-c2csc(NC(=O)C3(CCCO)CN(c4ccc(C(F)(F)F)cc4)C3)n2)s1 (racemic) [Compound I-529]
< 0.1 | Cc1nc([C@H](C)O)sc1-c1csc(NC(=O)Cc2ccc(S(=O)(=O)C(F)(F)F)cc2)n1 [Compound I-454]
1 to 8 | Cc1nc(C)c(-c2csc(NC(Cc3ccc(Cl)cc3)C(=O)N3CCN(C)CC3)n2)s1 (racemic) [II-45]
< 0.1 | Cc1nc(C)c(-c2csc(NC(=O)Cn3cc(-c4cccc(Cl)c4)cn3)n2)s1 [Compound I-146]
0.1 to 1 | Cc1nc(CO)sc1-c1csc(NC(=O)C2CN(S(=O)(=O)C(F)(F)F)C2)n1 [Compound I-403]
< 0.1 | COC(=O)NCc1nc(CO)sc1-c1csc(NC(=O)Cc2ccc(S(=O)(=O)C(F)(F)F)cc2)n1 [Compound I-435]
1 to 8 | Cc1nc(C)c(-c2csc(NC(Cc3ccc(Cl)cc3)C(=O)NCc3ccccc3)n2)s1 (racemic) [II-43]

IC50 [µM] | Compound
< 0.1 | O=C(Nc1nc(-c2sc(CO)nc2CO)cs1)C1CN(c2ccc(Cl)cc2)C1 [Compound I-343]
1 to 8 | Cc1nc(C)c(-c2csc(NC(=O)N3CC(F)C3)n2)s1 [Compound I-90]
< 0.1 | Cc1nc(CO)sc1-c1csc(NC(=O)C2CCN(c3ccccc3)C2)n1 (stereo not drawn) [Compound I-185]
1 to 8 | Cc1nc(C)c(-c2csc(NC(=O)Cn3cc(CCCC#N)nn3)n2)s1 [Compound I-429]
1 to 8 | Cc1nc(C)c(-c2csc(NC(=O)Cn3cc(-c4cncnc4)cn3)n2)s1 [Compound I-167]
< 0.1 | CNC(=O)NCc1nc(CO)sc1-c1csc(NC(=O)Cc2ccc(S(=O)(=O)C(F)(F)F)cc2)n1 [Compound I-389]
0.1 to 1 | Cc1nc(CO)sc1-c1csc(NC(=O)C2C[C@H](C(F)(F)F)CN2C(=O)OCC(F)(F)F)n1 (stereo partly drawn) [Compound I-475]
< 0.1 | Cc1nc(C)c(-c2csc(NC(=O)Cc3cc(N)cc(C(=O)N[C@H](c4ccccc4)C(F)(F)F)c3)n2)s1 [Compound I-518]
0.1 to 1 | CC(=O)NC(C)c1nc(CO)sc1-c1csc(NC(=O)Cc2ccc(S(=O)(=O)C(F)(F)F)cc2)n1 (single isomer, unassigned) [Compound I-482]
0.1 to 1 | Cc1nc(C#N)sc1-c1csc(NC(=O)Cc2ccc(S(=O)(=O)C(F)(F)F)cc2)n1 [Compound I-402]
1 to 8 | Cc1nc(C)c(-c2nc(NC(=O)Cc3c(F)cccc3F)sc2-c2ccc(O)cc2)s1 [Compound I-69]
0.1 to 1 | Cc1nc(C(C)O)sc1-c1csc(NC(=O)C2CN(c3ccc(C(F)(F)F)cn3)C2)n1 (racemic) [Compound I-473]
0.1 to 1 | Cc1nc(CO)sc1-c1csc(NC(=O)C2CC(=O)N(c3ccccc3)C2)n1 (stereo not drawn) [Compound I-199]
0.1 to 1 | Cc1nc(C)c(-c2csc(NC(=O)C3CN(C(=O)c4ccc(C(F)(F)F)cc4)C3)n2)s1 [Compound I-257]
0.1 to 1 | O=C(Nc1nc(-c2sc(CO)nc2CO)cs1)C1CN(c2ccccc2Cl)C1 [Compound I-342]
1 to 8 | Cc1nc(C)c(-c2csc(NC(=O)[C@@H]3C[C@@H](Oc4ccccc4)CN3C(=O)CO)n2)s1 [Compound I-252]
0.1 to 1 | Cc1nc(C)c(-c2csc(NC(=O)Cc3cccc(N)c3)n2)s1 [Compound I-409]
0.1 to 1 | Cc1nc(C)c(-c2csc(NC(=O)[C@H]3CC[C@@H](c4ccccc4)N3)n2)s1 [Compound I-215]
1 to 8 | Cc1nc(C)c(-c2nc(NC(=O)Cc3c(F)cccc3F)sc2-c2cccc(N(C)C)c2)s1 [Compound I-68]
< 0.1 | Cc1nc(C)c(-c2csc(NC(=O)Cn3cc(-c4ccccc4Cl)cn3)n2)s1 [Compound I-145]
1 to 8 | COCCOc1nc(C)c(-c2csc(NC(=O)Cc3ccc(S(=O)(=O)C(F)(F)F)cc3)n2)s1 [Compound I-445]
< 0.1 | Cc1nc(C)c(-c2csc(NC(=O)C3CN(Cc4ccccc4C(F)(F)F)C3)n2)s1 [Compound I-260]
1 to 8 | Cc1nc(C)c(-c2csc(NC(=O)C3CCCN(S(=O)(=O)c4ccccc4)C3)n2)s1 (stereo not drawn) [Compound I-194]
0.1 to 1 | CC(=O)c1nc(C)sc1-c1csc(NC(=O)Cc2c(F)cccc2F)n1 [Compound I-129]
0.1 to 1 | O=C(Nc1nc(-c2sc(CO)nc2CO)cs1)C1CN(c2ccc(C(F)(F)F)cn2)C1 [Compound I-303]
